Laboratory results reported in ChEMBL document CHEMBL5108079, “Therapeutic Activity of the Lansoprazole Metabolite 5-Hydroxy Lansoprazole Sulfide in Triple-Negative Breast Cancer by Inhibiting the Enoyl Reductase of Fatty Acid Synthase” (J Med Chem, 2022).
Calls of active or inactive are those of the source. The rule behind the calls is not given here.

What was measured:
MDA-MB-468 [1] = assay: Induction of ROS production in human MDA-MB-468 cells measured after 2 hrs by fluorescence based assay; format: functional, cell-based
MDA-MB-231 [2] = assay: Induction of ROS production in human MDA-MB-231 cells measured after 2 hrs by fluorescence based assay; format: functional, cell-based
MDA-MB-468 [3] = assay: Induction of apoptosis in human MDA-MB-468 cells at 20 uM incubated for 72 hrs by Annexin-V/PI staining based flow cytometric analysis; format: functional, cell-based
MDA-MB-468 [4] = assay: Induction of apoptosis in human MDA-MB-468 cells assessed as increase in cleaved PARP1 level incubated for 72 hrs by Western blot analysis; format: functional, cell-based; settings: dose 2.5-10 µM, DDE = dose-dependent effect
MDA-MB-468 [5] = assay: Induction of apoptosis in human MDA-MB-468 cells assessed as increase in cleaved caspase 3 level incubated for 72 hrs by Western blot analysis; format: functional, cell-based; settings: dose 2.5-10 µM, DDE = dose-dependent effect
MDA-MB-231 [6] = assay: Induction of apoptosis in human MDA-MB-231 cells assessed as increase in cleaved PARP1 level incubated for 72 hrs by Western blot analysis; format: functional, cell-based; settings: dose 2.5-10 µM, DDE = dose-dependent effect
MDA-MB-231 [7] = assay: Induction of apoptosis in human MDA-MB-231 cells assessed as increase in cleaved caspase 3 level incubated for 72 hrs by Western blot analysis; format: functional, cell-based; settings: dose 2.5-10 µM, DDE = dose-dependent effect
MDA-MB-231 [8] = assay: Induction of apoptosis in human MDA-MB-231 cells at 10 uM incubated for 72 hrs by Annexin-V/PI staining based flow cytometric analysis; format: functional, cell-based
MDA-MB-468 [9] = assay: Inhibition of DNA repair activity in human MDA-MB-468 cells assessed as inhibition of NHEJ activity measured every 12 hrs for 72 hrs by luciferase based host cell reactivation assay; format: functional
MDA-MB-231 [10] = assay: Inhibition of DNA repair activity in human MDA-MB-231 cells assessed as inhibition of NHEJ activity measured every 12 hrs for 72 hrs by luciferase based host cell reactivation assay; format: functional
Fatty acid synthase [11] = molecular target: T1, Fatty acid synthase (Homo sapiens, UniProt P49327); assay: Inhibition of FASN in human MDA-MB-231 cells overexpressing FASN assessed as decrease in endogenous FFA level at IC50 concentration incubated for 72 hrs; format: cell-based
Target sequence in this assay (P49327 whole entry, looked up): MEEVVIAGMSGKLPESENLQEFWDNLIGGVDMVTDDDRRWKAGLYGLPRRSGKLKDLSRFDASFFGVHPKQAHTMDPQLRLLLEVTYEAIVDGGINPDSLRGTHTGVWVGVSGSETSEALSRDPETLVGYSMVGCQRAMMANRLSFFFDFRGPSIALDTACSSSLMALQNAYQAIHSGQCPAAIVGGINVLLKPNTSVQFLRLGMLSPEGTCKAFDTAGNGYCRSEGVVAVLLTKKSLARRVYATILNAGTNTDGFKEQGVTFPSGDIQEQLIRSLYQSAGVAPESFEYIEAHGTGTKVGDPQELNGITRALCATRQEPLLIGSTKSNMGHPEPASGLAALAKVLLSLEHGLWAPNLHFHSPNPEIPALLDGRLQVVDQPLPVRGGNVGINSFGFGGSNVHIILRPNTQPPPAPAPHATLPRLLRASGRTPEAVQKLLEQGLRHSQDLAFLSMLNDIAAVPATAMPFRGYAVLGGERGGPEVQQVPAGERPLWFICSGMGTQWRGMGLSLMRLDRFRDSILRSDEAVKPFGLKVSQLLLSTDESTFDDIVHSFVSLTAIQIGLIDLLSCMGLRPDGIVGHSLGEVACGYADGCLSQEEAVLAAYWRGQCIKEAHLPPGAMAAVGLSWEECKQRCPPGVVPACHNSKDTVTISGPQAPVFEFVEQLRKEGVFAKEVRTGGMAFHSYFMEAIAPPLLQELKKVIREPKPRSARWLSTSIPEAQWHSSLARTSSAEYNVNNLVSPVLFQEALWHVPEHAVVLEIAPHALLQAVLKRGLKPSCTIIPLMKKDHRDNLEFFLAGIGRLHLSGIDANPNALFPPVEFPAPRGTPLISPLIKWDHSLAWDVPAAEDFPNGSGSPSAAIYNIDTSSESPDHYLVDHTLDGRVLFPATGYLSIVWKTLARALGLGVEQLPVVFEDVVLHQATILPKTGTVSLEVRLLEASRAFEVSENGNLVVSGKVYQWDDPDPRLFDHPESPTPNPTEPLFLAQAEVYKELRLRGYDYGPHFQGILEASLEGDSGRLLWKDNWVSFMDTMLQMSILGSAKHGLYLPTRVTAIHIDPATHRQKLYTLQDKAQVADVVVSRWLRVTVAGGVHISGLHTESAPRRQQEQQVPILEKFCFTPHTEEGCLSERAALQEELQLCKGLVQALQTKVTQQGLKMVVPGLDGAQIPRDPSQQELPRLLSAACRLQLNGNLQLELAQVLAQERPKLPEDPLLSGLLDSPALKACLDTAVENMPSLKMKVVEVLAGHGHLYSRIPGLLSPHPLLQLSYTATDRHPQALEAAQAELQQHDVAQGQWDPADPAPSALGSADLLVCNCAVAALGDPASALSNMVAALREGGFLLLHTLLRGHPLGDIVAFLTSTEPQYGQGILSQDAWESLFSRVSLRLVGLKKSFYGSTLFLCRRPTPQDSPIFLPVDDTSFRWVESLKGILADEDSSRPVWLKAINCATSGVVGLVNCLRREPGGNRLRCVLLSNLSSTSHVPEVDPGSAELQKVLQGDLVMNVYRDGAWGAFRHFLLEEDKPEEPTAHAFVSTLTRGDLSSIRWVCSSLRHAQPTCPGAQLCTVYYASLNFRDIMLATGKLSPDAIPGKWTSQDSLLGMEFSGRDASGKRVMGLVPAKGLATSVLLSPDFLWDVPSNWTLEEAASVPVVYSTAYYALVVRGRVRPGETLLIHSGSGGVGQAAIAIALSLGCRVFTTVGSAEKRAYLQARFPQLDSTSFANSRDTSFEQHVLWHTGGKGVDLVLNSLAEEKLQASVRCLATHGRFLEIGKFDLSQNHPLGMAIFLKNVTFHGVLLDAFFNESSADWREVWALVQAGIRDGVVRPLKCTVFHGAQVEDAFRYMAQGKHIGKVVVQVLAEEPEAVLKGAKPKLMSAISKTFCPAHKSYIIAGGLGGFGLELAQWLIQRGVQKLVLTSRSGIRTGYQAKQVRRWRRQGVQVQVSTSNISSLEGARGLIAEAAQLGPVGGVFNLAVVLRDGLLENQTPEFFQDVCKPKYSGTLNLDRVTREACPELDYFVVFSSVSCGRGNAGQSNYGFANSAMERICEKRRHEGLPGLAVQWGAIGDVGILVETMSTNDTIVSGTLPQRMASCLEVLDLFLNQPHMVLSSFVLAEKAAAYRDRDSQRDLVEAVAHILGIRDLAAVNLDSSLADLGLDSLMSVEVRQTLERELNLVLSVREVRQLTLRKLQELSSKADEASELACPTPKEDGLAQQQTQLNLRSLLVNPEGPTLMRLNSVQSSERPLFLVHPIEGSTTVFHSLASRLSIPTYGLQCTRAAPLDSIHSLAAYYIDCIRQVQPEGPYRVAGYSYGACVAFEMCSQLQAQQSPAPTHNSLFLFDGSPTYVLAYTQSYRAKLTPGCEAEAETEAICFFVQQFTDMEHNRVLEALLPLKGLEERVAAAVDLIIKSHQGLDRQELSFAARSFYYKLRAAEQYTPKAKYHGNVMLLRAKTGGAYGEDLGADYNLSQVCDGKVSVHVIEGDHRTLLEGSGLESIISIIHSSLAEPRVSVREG

MDA-MB-468 [12] = assay: Induction of DNA damage in human MDA-MB-468 cells nucleus assessed as increase in gamma-H2AX punctate staining at 20 uM by DAPI staining based confocal microscopic imaging analysis; format: functional, cell-based
MDA-MB-231 [13] = assay: Induction of DNA damage in human MDA-MB-231 cells nucleus assessed as increase in gamma-H2AX punctate staining at 10 uM by DAPI staining based confocal microscopic imaging analysis; format: functional, cell-based
MDA-MB-231 [14] = assay: Induction of DNA damage in human MDA-MB-231 cells assessed as inhibition of PARP-1 expression incubated for 72 hrs by Western blot analysis; format: functional, cell-based; settings: dose 2.5-10 µM, DDE = dose-dependent effect
MDA-MB-468 [15] = assay: Induction of DNA damage in human MDA-MB-468 cells assessed as inhibition of PARP-1 expression incubated for 72 hrs by Western blot analysis; format: functional, cell-based; settings: dose 2.5-10 µM, DDE = dose-dependent effect
MDA-MB-231 [16] = assay: Induction of DNA damage in human MDA-MB-231 cells assessed as decrease in PARP-1 mRNA level at 2.5 to 10 uM incubated for 72 hrs by RT-PCR analysis; format: functional, cell-based; settings: dose 2.5-10 µM
MDA-MB-468 [17] = assay: Induction of DNA damage in human MDA-MB-468 cells assessed as decrease in PARP-1 mRNA level at 2.5 to 10 uM incubated for 72 hrs by RT-PCR analysis; format: functional, cell-based; settings: dose 2.5-10 µM
MDA-MB-231 [18] = assay: Induction of DNA damage in human MDA-MB-231 cells assessed as increase in gamma-H2AX level measured after 72 hrs by Western blot analysis; format: functional, cell-based; settings: dose 2.5-10 µM, DDE = dose-dependent effect
MDA-MB-468 [19] = assay: Induction of DNA damage in human MDA-MB-468 cells assessed as increase in gamma-H2AX level measured after 72 hrs by Western blot analysis; format: functional, cell-based; settings: dose 2.5-10 µM, DDE = dose-dependent effect
MDA-MB-231 [20] = assay: Effect on cell cycle distribution in human MDA-MB-231 cells assessed as accumulation of cells in sub-G1 phase at 10 uM incubated for 72 hrs by PI staining based flow cytometric analysis; format: functional
[21] = Induction of DNA damage in human KTB22 cells assessed as increase in gamma-H2AX level at IC50 concentration by Western blot analysis; format: toxicity, cell-based
[22] = Induction of DNA damage in human KTB34 cells assessed as increase in gamma-H2AX level at IC50 concentration by Western blot analysis; format: toxicity, cell-based
[23] = Induction of DNA damage in human KTB39 cells assessed as increase in gamma-H2AX level at IC50 concentration by Western blot analysis; format: toxicity, cell-based
MDA-MB-231 [24] = assay: Antitumor activity against human MDA-MB-231 cells xenografted in NSG mouse assessed as reduction in tumor growth at 100 mg/kg, ip administered once daily for 22 days; format: functional, organism-based; settings: time 22.0 day
MDA-MB-231 [25] = assay: Antitumor activity against human MDA-MB-231 cells xenografted in NSG mouse assessed as reduction in tumor wet weight at 100 mg/kg, ip administered once daily for 22 days; format: functional, organism-based; settings: time 22.0 day
[26] = Toxicity in NSG mouse xenografted with human MDA-MB-231 cells assessed as effect on body weight at 100 mg/kg, ip administered once daily for 22 days; format: organism-based; settings: in vivo, 528 h, time 22 day
Mus musculus [27] = assay: In vivo inhibition of […] in NSG mouse xenografted with human MDA-MB-231 cells assessed as reduction of FASN level in tumor at 100 mg/kg, ip administered once daily for 22 days by Western blot analysis; format: functional, organism-based; settings: time 22.0 day
Mus musculus [28] = assay: In vivo inhibition of […] in NSG mouse xenografted with human MDA-MB-231 cells assessed as reduction of FASN level in tumor at 100 mg/kg, ip administered once daily for 22 days by immunohistochemical analysis; format: functional, organism-based; settings: time 22.0 day
Mus musculus [29] = assay: In vivo inhibition of […] in NSG mouse xenografted with human MDA-MB-231 cells assessed as reduction of PARP1 level in tumor at 100 mg/kg, ip administered once daily for 22 days by Western blot analysis; format: functional, organism-based; settings: time 22.0 day
Mus musculus [30] = assay: In vivo inhibition of […] in NSG mouse xenografted with human MDA-MB-231 cells assessed as reduction of PARP1 level in tumor at 100 mg/kg, ip administered once daily for 22 days by immunohistochemical analysis; format: functional, organism-based; settings: time 22.0 day
Mus musculus [31] = assay: In vivo inhibition of […] in NSG mouse xenografted with human MDA-MB-231 cells assessed as increase in gamma-H2AX level in tumor at 100 mg/kg, ip administered once daily for 22 days by Western blot analysis; format: functional, organism-based; settings: time 22.0 day
Mus musculus [32] = assay: In vivo inhibition of […] in NSG mouse xenografted with human MDA-MB-231 cells assessed as increase in gamma-H2AX level in tumor at 100 mg/kg, ip administered once daily for 22 days by immunohistochemical analysis; format: functional, organism-based; settings: time 22.0 day
MDA-MB-231 [33] = assay: Antiproliferative activity against human MDA-MB-231 cells assessed as reduction in cell survival incubated for 72 hrs by methylene blue cell survival assay; format: functional, cell-based
MDA-MB-468 [34] = assay: Antiproliferative activity against human MDA-MB-468 cells assessed as reduction in cell survival incubated for 72 hrs by methylene blue cell survival assay; format: functional, cell-based
MDA-MB-436 = assay: Antiproliferative activity against human MDA-MB-436 cells assessed as reduction in cell survival incubated for 72 hrs by methylene blue cell survival assay; format: functional, cell-based
HCC1937 = assay: Antiproliferative activity against human HCC1937 cells assessed as reduction in cell survival incubated for 72 hrs by methylene blue cell survival assay; format: functional, cell-based
Fatty acid synthase [35] = molecular target: T1, Fatty acid synthase; assay: Inhibition of human FASN enoyl reductase activity using crotonyl CoA as substrate assessed as inhibition of substrate […] measured every 1 min for 10 mins in the presence of NADPH by fluorescence based assay
Target sequence in this assay (P49327 whole entry): as the sequence (P49327 whole entry, looked up) above

SMILES: CC1=CC(=O)c2ccccc2C1=O
- Activity (MDA-MB-468 [1]): Active
- Activity (MDA-MB-231 [2]): Active

SMILES: Cc1c(OCC(F)(F)F)ccnc1CSc1nc2ccc(O)cc2[nH]1
- Activity (MDA-MB-468 [3]): Active
- Activity (MDA-MB-468 [4]): Dde
- Activity (MDA-MB-468 [5]): Dde
- Activity (MDA-MB-231 [6]): Dde
- Activity (MDA-MB-231 [7]): Dde
- Activity (MDA-MB-231 [8]): Active
- inhibition (MDA-MB-468 [9]): Active
- inhibition (MDA-MB-231 [10]): Active
- inhibition (Fatty acid synthase [11]): Active
- Activity (MDA-MB-468 [12]): Active
- Activity (MDA-MB-231 [13]): Active
- Activity (MDA-MB-231 [14]): Dde
- Activity (MDA-MB-468 [15]): Dde
- Activity (MDA-MB-231 [16]): Active
- Activity (MDA-MB-468 [17]): Active
- Activity (MDA-MB-231 [18]): Dde
- Activity (MDA-MB-468 [19]): Dde
- Activity (MDA-MB-231 [20]): Active
- Activity [21]: Toxic
- Activity [22]: Toxic
- Activity [23]: Toxic
- Activity (MDA-MB-231 [24]): Active
- Activity (MDA-MB-231 [25]): Active
- Activity [26]: Non-Toxic
- inhibition (Mus musculus [27]): Active
- inhibition (Mus musculus [28]): Active
- inhibition (Mus musculus [29]): Active
- inhibition (Mus musculus [30]): Active
- inhibition (Mus musculus [31]): Active
- inhibition (Mus musculus [32]): Active
- Activity (MDA-MB-231 [33]): Active
- Activity (MDA-MB-468 [34]): Active
- Activity (MDA-MB-436): Active
- Activity (HCC1937): Active

SMILES: Cc1c(OCC(F)(F)F)ccnc1C[S+]([O-])c1nc2ccccc2[nH]1 (stereo unspecified) [LANSOPRAZOLE]
- inhibition (MDA-MB-468 [9]): Active
- inhibition (MDA-MB-231 [10]): Active
- inhibition (Fatty acid synthase [11]): Active
- Activity (MDA-MB-468 [12]): Active
- Activity (MDA-MB-231 [13]): Active
- Ki (Fatty acid synthase [35]): 1700 nM
- Activity (MDA-MB-231 [14]): Dde
- Activity (MDA-MB-468 [15]): Dde
- Activity (MDA-MB-231 [16]): Active
- Activity (MDA-MB-468 [17]): Active
- Activity (MDA-MB-231 [18]): Dde
- Activity (MDA-MB-468 [19]): Dde
- Activity [21]: Toxic
- Activity [22]: Toxic
- Activity [23]: Toxic
